Assay results: paper PMC10669220, “In Vitro α-Glucosidase and α-Amylase Inhibition, Cytotoxicity and Free Radical Scavenging Profiling of the 6-Halogeno and Mixed 6,8-Dihalogenated 2-Aryl-4-methyl-1,2-dihydroquinazoline 3-Oxides” (Antioxidants, 2023)

Assays:
[1] = system: nitric oxide synthase (NOS); experiment: Kinetic study on inhibitory activity of NOS; format: biochemical; conditions: seven concentrations 1-10.0 μM; Figure 3; read-out: IC50 NOS inhibition (kinetic study)
Protocol: A nitric oxide synthase (NOS) assay was performed following the procedure recommended by the manufacturer as outlined in the screening kit (Catalogue No. EINO-100; EnzyChrom). Various concentrations (1, 2.5, 4.0, 5.5, 7.0, 8.5 and 10.0 µM) of the compounds 3i and the reference standard, DPI, were prepared. The enzyme solution (12.5 U/mL NOS, 10 uL), assay buffer (25 µL) and test samples (5 µL) were incubated at room temperature for 15 min. After pre-incubation, 10 µL of reaction mix was added and incubated at 37 °C for 60 min. A 200 µL quantity of NO detection reagent was added, the detection reaction was run at 37 °C for 60 min, and absorbance was determined at a wavelength of 540 nm using an Elisa plate reader (Varioskan Flash, ThermoFisher Scientific, Vantaa, Finland). The average of three readings was used to calculate the NOS percentage inhibition using the formula in Section 2.6.3

[2] = system: lung cancer (A549) cell line; experiment: MTT cytotoxicity assay, A549; conditions: for Cell viability percentage, A549: Table S3
human α-amylase = molecular target: T1, human α-amylase (Homo sapiens, UniProt P04746); experiment: α-amylase inhibitor screening kit assay; format: biochemical; conditions: mean ± SD, triplicate; tested at 1, 5, 10, 25, 50 µM
T1 construct: purchased Abcam ab283391
T1 sequence (P04746 16-511): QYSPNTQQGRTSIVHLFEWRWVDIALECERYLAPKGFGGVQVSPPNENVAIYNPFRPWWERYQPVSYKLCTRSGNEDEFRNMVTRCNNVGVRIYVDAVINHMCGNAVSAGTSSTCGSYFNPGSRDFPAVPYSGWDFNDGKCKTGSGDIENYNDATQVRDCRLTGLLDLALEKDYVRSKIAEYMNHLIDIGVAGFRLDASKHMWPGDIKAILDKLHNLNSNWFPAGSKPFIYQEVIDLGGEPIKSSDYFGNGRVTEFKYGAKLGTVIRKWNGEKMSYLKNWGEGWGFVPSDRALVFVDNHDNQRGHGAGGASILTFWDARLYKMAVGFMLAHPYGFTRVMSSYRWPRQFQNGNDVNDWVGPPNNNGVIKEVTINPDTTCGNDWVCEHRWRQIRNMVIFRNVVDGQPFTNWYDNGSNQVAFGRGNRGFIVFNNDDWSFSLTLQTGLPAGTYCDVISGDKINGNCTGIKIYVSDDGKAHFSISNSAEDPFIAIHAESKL
Protocol: The α-amylase assay was performed in triplicate, using a 96-well plate following the procedure recommended by the manufacturer as outlined in the α-amylase inhibitor Screening Kit (Catalogue No. ab283391; Abcam). […] The average values obtained from the absorbance readings were used to determine the IC50 and standard deviation values in GraphPad prism from nonlinear regression dose–response curves.

[3] = system: breast cancer (MCF-7) cell line; experiment: MTT cytotoxicity assay, MCF-7; conditions: for Cell viability percentage, MCF-7: Table S2
Protocol: (§1) Cells were cultured in sterile Dulbecco’s Minimal Essential Medium (DMEM, Gibco) supplemented with 10% fetal bovine serum (FBS) and 1% penicillin-streptomycin solution. […] Cell counting was carried out using a handheld automated cell counter (Scapter 3.0™, Merck, Burlington, MA, USA) and seeded (1 × 10^4 cells/well) into a 96-well plate. After 24 h, the cells were treated with different concentrations (1, 5, 10, 25 and 50 µM) of the test compounds and reference standards prepared in DMEM. The MTT solution (20 μL) prepared in PBS (5 mg/mL) was added to all the wells, and the plates were incubated for 4 h, followed by 1 h incubation with 100 µL of dimethyl sulfoxide (DMSO) to dissolve the formazan crystals. Untreated cells and 5% DMSO were included in the experiment as negative controls. All experiments were performed in triplicate. The plates were read at 570 nm at a reference wavelength of 630 nm using an ELISA plate reader (Varioskan Flash, ThermoFisher Scientific, Vantaa, Finland). The percentage of cell viability was calculated using the following formula, Cell viability %=At/Ab×100 where At represents the absorbance value of test compound and Ab the absorbance value of the blank. […] The data were expressed as means ± SD.

[4] = MTT cytotoxicity assay, HEK293-T; conditions: human, HEK293-T cells
Protocol: as §1

[5] = system: human embryonic kidney (HEK293-T) cell line; experiment: MTT cytotoxicity assay, HEK293-T; conditions: Homo sapiens, HEK-293T, read-out: IC50 Hek293-T
Protocol: as §1

[6] = molecular target: superoxide dismutase (SOD); experiment: Superoxide dismutase (SOD) inhibitory assay (SOD assay kit-WST); format: biochemical; conditions: duplicate; 1-50 µM; 25 °C, 30 min; read-out: IC50 SOD inhibition
Protocol: The antioxidant activity of the compounds 3a, 3c, 3f, 3i, 3l, 3n and 3p against superoxide radicals was assessed via enzymatic assay in vitro using the SOD assay kit-WST according to the manufacturer’s instructions (Sigma-Aldrich®). The reaction mixtures in the SOD kit were combined with 20 μL of working solution of the samples in a 96-well plate. Plates were gently shaken and then incubated at 25 °C for 30 min. The reference positive control, diphenyleneiodonium (DPI), and the compounds were tested at 01, 5, 10, 25 and 50 µM in duplicates. The inhibition activity of SOD on the reaction of […] generated the superoxide with a tetrazolium salt, which was then determined by measuring the absorbance of the mixtures at a wavelength of 450 nm using an Elisa plate reader (Varioskan Flash, ThermoFisher Scientific, Vantaa, Finland). The SOD activity values obtained used to calculate the percentage of inhibition. % SOD activity=ODx− ODy/ODx ×100% where ODx is the absorbance of the blank (untreated SOD) and ODy is the absorbance of the sample (treated SOD). All tests were performed in duplicate.

[7] = molecular target: T2, α-Glucosidase type 1 from baker's yeast (Saccharomyces cerevisiae, UniProt P53341); experiment: biochemical; conditions: IC50 α-Glucosidase, mean ± SD, triplicate; tested at 1, 5, 10, 25, 50 µM
T2 construct: purchased Sigma Aldrich (Pty) Ltd. G5003
T2 sequence (P53341 whole entry): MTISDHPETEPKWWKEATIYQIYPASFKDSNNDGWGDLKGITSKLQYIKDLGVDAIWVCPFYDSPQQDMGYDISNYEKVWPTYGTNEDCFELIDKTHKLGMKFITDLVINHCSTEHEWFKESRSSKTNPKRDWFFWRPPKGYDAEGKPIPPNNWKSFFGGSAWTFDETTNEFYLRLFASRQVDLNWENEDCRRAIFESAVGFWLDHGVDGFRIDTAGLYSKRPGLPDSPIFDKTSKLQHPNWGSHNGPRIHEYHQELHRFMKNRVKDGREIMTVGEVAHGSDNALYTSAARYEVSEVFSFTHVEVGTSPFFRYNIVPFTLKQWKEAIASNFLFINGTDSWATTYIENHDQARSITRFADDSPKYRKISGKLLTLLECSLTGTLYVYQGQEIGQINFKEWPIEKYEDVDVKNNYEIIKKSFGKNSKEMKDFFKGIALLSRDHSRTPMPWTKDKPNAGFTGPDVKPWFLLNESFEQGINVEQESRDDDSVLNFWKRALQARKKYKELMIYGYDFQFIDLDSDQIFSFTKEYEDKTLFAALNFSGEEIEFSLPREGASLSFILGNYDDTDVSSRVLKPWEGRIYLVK

In the case of CC1=[N+]([O-])C(c2ccccc2)Nc2c(I)cc(Br)cc21 (stereo not shown) [Compound 3i], the IC50 [1] is reported as 6.75 ± 0.002 µM, the “Cell viability percentage, A549” value ([2]; Conc. 1 (µM per method)) is reported as 84,0927% and the “Cell viability percentage, A549” value ([2]; Conc. 5 (µM per method)) is reported as 69,8954%. The “Cell viability percentage, A549” value ([2]; Conc. 10 (µM per method)) was 61,098%, the “Cell viability percentage, A549” value ([2]; Conc. 25 (µM per method)) was 43,9195% and the “Cell viability percentage, A549” value ([2]; Conc. 50 (µM per method)) was 23,0847%. For the same compound, the IC50 ([2]; Homo sapiens, A549, read-out: IC50 A549) was 16.85 ± 0.05 µM, the IC50 (human α-amylase) was 1.18 ± 0.06 µM and the “Cell viability percentage, MCF-7” value ([3]; Conc. 1 (µM per method)) was 24,1184%. For the same compound, the “Cell viability percentage, MCF-7” value ([3]; Conc. 5 (µM per method)) was 22,006%, the “Cell viability percentage, MCF-7” value ([3]; Conc. 10 (µM per method)) was 22,1058% and the “Cell viability percentage, MCF-7” value ([3]; Conc. 25 (µM per method)) was 19,5775%. The “Cell viability percentage, MCF-7” value ([3]; Conc. 50 (µM per method)) was 18,1803%, the IC50 ([3]; Homo sapiens, MCF7, read-out: IC50 MCF-7) was 15.43 ± 0.06 µM and the viability at 1 µM [4] was 34.9%. For the same compound, the viability at 5 µM [4] was 33.9%, the viability at 10 µM [4] was 33.8% and the viability at 25 µM [4] was 29.8%. It also gave a viability at 50 µM [4] of 26.9%, an IC50 [5] of 34.9 ± 0.13 µM and an IC50 [6] of 15 ± 0.14 µM. The IC50 [7] was 1.01 ± 0.05 µM.
